Data published in article PMC6072251 (ACS Omega, 2018).
≈ marks a conversion by molar mass, not a printed value. Like-named read-outs stand apart in the source and are kept apart here.

Key:
S. mutans growth = S. mutans growth inhibition assay; assay type: cell-based, Streptococcus mutans UA159; conditions: Streptococcus mutans, read-out: Growth MIC50
Gtfs = assay: Zymogram assay of Gtf enzymatic activity; assay type: biochemical, S. mutans UA159; conditions: compared to DMSO control
[1] = system: S. mutans UA159-induced dental caries; assay: Rat model of dental caries; assay type: in vivo, Fischer 344 rats; conditions: for bacterial colonization (cfu/mandible) / body weight over the course of the study: 100 μM twice daily for 4 weeks; for bacterial colonization (cfu/mandible): compared with control group treated with water; for body weight over the course of the study: in comparison with the control group; for oral tissue (mucosal and gingival tissues) at sacrifice: treated vs nontreated rats
S. mutans biofilm = S. mutans biofilm formation and inhibition assay; assay type: cell-based, Streptococcus mutans UA159; conditions: for IC50: Streptococcus mutans
S. mutans = assay: Cell viability / growth of S. mutans; assay type: cell-based
S. sanguinis = assay: Growth of commensal S. sanguinis; assay type: cell-based, Streptococcus sanguinis SK36
S. gordonii = assay: Growth of commensal S. gordonii; assay type: cell-based, Streptococcus gordonii DL1
S. mutans colonization = assay: Sucrose-dependent drosophila colonization model; assay type: in vivo; conditions: 50 μM, feeding assay, after 7 days of infection

SMILES | MIC50 (S. mutans growth) [µM] | glucan production / Gtf inhibition in zymogram assay (in words) (Gtfs) | bacterial colonization (cfu/mandible) [1] | body weight over the course of the study [1] | oral tissue (mucosal and gingival tissues) at sacrifice [1] | IC50 (S. mutans biofilm; read-out: Biofilm IC50, S. mutans biofilm, NI: no inhibition) [µM] | viability of the biofilms and the planktonic cells (S. mutans; S. mutans) | inhibition of cell viability (S. mutans; S. mutans, at 400 μM) [%] | inhibition at 52 µM (S. mutans; Streptococcus mutans, read-out: growth inhibited) [%] | decrease of cell density (S. sanguinis; S. sanguinis, at 400 μM) | inhibition at 52 µM (S. sanguinis; Streptococcus sanguinis, read-out: growth inhibited) [%] | decrease of cell density (S. gordonii; S. gordonii, at 400 μM) | inhibition at 52 µM (S. gordonii; Streptococcus gordonii, read-out: growth inhibited) [%] | fluorescence in the guts of flies fed Gfp-tagged S. mutans (S. mutans colonization) | IC50 (S. mutans biofilm; read-out: Biofilm IC50) [µM] | Selectivity (S. mutans biofilm; biofilm inhibition over growth inhibition of S. mutans)
Oc1ccc(/C=C/c2cc(O)cc(O)c2)cc1 [Compound 7, resveratrol] | 546 ± 15.9 (≈ 125 µg/mL) | marginal inhibition | not statistically significant | did not lose weight | no obvious differences |  |  |  |  |  |  |  |  |  |  | 
Oc1cc(O)cc(/C=C/c2ccc(O)c(O)c2)c1 [Compound 8, piceatannol] | 564 ± 37.8 (≈ 138 µg/mL) | greatly reduced glucan production | not statistically significant | did not lose weight | no obvious differences | 52 ± 6 | not significantly impacted | 37 | < 10 | 15–18% | < 10 | 15–18% | < 10 | significant decrease in fluorescence |  | 
O=C(/C=C/c1ccc(O)c(O)c1)O[C@@H]1C[C@](O)(C(=O)O)C[C@@H](O)[C@H]1O [Compound 10] | 1720 ± 53 (≈ 611 µg/mL) |  |  |  |  |  |  |  |  |  |  |  |  |  | 518 ± 85 | 3.3
